Measurements: patent US20060093561A1, “Method of treating microorganisms in the oral cavity” (priority 2004, published 2006)

Columns and labels:
[1] = tested on: P. gingivalis; assay: Photodynamic therapy assay, serum and blood bacteria suspensions; format: cell-based, Porphyromonas gingivalis 381
Procedure: (§1) An overnight bacterial culture was removed from the anaerobic chamber and centrifuged at 2400×g for 5 minutes in an IEC21000R centrifuge (Fisher). The supernatant was discarded and the pellet washed and resuspended three times in PBS. The bacterial suspension was then adjusted to a working concentration of approximately 10^10 colony forming units (cfu)/ml by measurement of optical density at 600 nm (Pharmacia LKB Ultraspec III). The suspension was returned to the anaerobic chamber and aliquoted in pre-reduced 1.5 ml microfuge tubes (Fisher) in order to decrease oxygen exposure of the anaerobic suspension.
(§2) Prior to light irradiation, 75 μl of calibrated bacterial suspension (7.5×10^8 cfu) was mixed with 75 μl of TBO stock solution (100 μg/ml) in a sterile tube, for a final mixture concentration of 5×10^9 cfu/ml and 50 μg/ml TBO. The mixture was then incubated at room temperature for 5 min. in the dark. TBO negative controls were incubated with an equal volume of sterile PBS instead of TBO. The mixture was then added to a sterilized perfusion chamber (Cedarlane Laboratories) mounted on a glass coverslip. The perfusion chamber was 500 μm thick, and so attenuation of the treatment light by the TBO was only 30% at 50 μg/ml. For most treatments at a concentration of 12.5 μg/ml TBO, the attenuation of treatment light was only 9%. The inoculated perfusion chamber was irradiated under the desired conditions with a light beam whose diameter covered the perfusion chamber's transparent surface. […] Colony counts determined the number of bacterial survivors and they were expressed as cfu/ml. […]

[2] = Storage stability of TBO stock solution; format: physicochemical; details: 1 mg/ml in PBS, filter sterilized, dark tubes at −20° C., up to 3 months
Procedure: (§3) The photosensitizer TBO (Sigma) was dissolved in Dulbecco's Phosphate Buffered Saline (PBS) (Sigma) to a concentration of 1 mg/ml under ambient light. […] The stock was diluted to appropriate concentrations with PBS as required.

[3] = tested on: B. forsythus; assay: Photodynamic therapy assay after serum washout of bacteria; format: cell-based, Bacteroides forsythus 43037; details: xenon lamp 10 J/cm^2, 100 mW/cm^2, 12.5 μg/ml TBO
Description: (§4) The following bacteria were used in these experiments and cultivated in an anaerobic chamber (available commercially from Coy Manufacturing Co.; AnnArbor, Mich., USA): Porphyromonas gingivalis 381; Prevotella intermedia 25611; Actinobacillus actinomycetemcomitans UT32; Fusobacterium nucleatum 1213; Bacteroides forsythus 43037. P. gingivalis and P. intermedia strains were subcultured weekly in Todd Hewitt Broth (available commercially from Fisher Scientific; Nepean, Ontario, Canada; hereinafter referred to as Fisher) supplemented with 5 μg/ml hemin (Sigma-Aldrich Co.; Oakville, Ontario, Canada; hereinafter referred to as Sigma) and 1 μg/ml menadione (Sigma). A. actinomycetemcomitans was subcultured in Tryptic Soy Broth (Fisher) containing 6 g/l yeast extract (Fisher) and 8 ml of 1.5% sodium bicarbonate, filter sterilized (Fisher). F. nucleatum was subcultured in Todd Hewitt Broth. […]
(§5) Prior to light irradiation, 75 μl of calibrated bacterial suspension (7.5×10^8 cfu) was mixed with 75 μl of TBO stock solution (100 μg/ml) in a sterile tube, for a final mixture concentration of 5×10^9 cfu/ml and 50 μg/ml TBO. […] Colony counts determined the number of bacterial survivors and they were expressed as cfu/ml. […]

[4] = tested on: F. nucleatum; assay: as above; format: cell-based, Fusobacterium nucleatum 1213; details: xenon lamp 10 J/cm^2, 100 mW/cm^2, 12.5 μg/ml TBO
Description: as §4, §5

[5] = tested on: P. gingivalis; assay: as above; format: cell-based, Porphyromonas gingivalis 381
Procedure: as §1
as §2, with “μg/ml.” for “μg/ml. For most treatments at a concentration of 12.5 μg/ml TBO, the attenuation of treatment light was only 9%. The inoculated perfusion chamber was irradiated under the desired conditions with a light beam whose diameter covered the perfusion chamber's transparent surface.”

[6] = tested on: P. intermedia; assay: as above; format: cell-based, Prevotella intermedia 25611; details: xenon lamp 10 J/cm^2, 100 mW/cm^2, 12.5 μg/ml TBO
Description: as §4, §5

[7] = tested on: A. actinomycetemcomitans; assay: as above; format: cell-based, Actinobacillus actinomycetemcomitans UT32; details: xenon lamp 10 J/cm^2, 100 mW/cm^2, 12.5 μg/ml TBO
Description: as §4, §5

[8] = tested on: P. gingivalis; assay: Photodynamic therapy assay, bacteria suspended in PBS; format: cell-based, Porphyromonas gingivalis 381; details: for killing of P. gingivalis: light dose 2.2 J/cm^2, 50 μg/ml TBO, 5 min incubation
Description: The following bacteria were used in these experiments and cultivated in an anaerobic chamber (available commercially from Coy Manufacturing Co.; AnnArbor, Mich., USA): Porphyromonas gingivalis 381; Prevotella intermedia 25611; Actinobacillus actinomycetemcomitans UT32; Fusobacterium nucleatum 1213; Bacteroides forsythus 43037. P. gingivalis and P. intermedia strains were subcultured weekly in Todd Hewitt Broth (available commercially from Fisher Scientific; Nepean, Ontario, Canada; hereinafter referred to as Fisher) supplemented with 5 μg/ml hemin (Sigma-Aldrich Co.; Oakville, Ontario, Canada; hereinafter referred to as Sigma) and 1 μg/ml menadione (Sigma). A. actinomycetemcomitans was subcultured in Tryptic Soy Broth (Fisher) containing 6 g/l yeast extract (Fisher) and 8 ml of 1.5% sodium bicarbonate, filter sterilized (Fisher). F. nucleatum was subcultured in Todd Hewitt Broth. B. forsythus was subcultured in Brain Heart Infusion Broth (95 ml) (Fisher) supplemented with 0.001 g N-acetylmuramic acid (Sigma) in 5 ml Horse Serum (Cedarlane Laboratories; Hornby, Ontario, Canada), filter sterilized. Prior to experiments, a fresh broth tube was inoculated and allowed to grow overnight at 37° C. in the anaerobic chamber.
A 100 Watt red-filtered xenon fibre optic light source having a bandwidth of 620-640 nm (available commercially from EXFO, Inc.; Mississauga, Ontario, Canada) was used in these experiments. […] Light dose for each source was calculated by the cross product of the TBO absorption spectrum and light spectrum.
as §3, §1
Prior to light irradiation, 75 μl of calibrated bacterial suspension (7.5×10^8 cfu) was mixed with 75 μl of TBO stock solution (100 μg/ml) in a sterile tube, for a final mixture concentration of 5×10^9 cfu/ml and 50 μg/ml TBO. The mixture was then incubated at room temperature for 5 min. in the dark. TBO negative controls were incubated with an equal volume of sterile PBS instead of TBO. The mixture was then added to a sterilized perfusion chamber (Cedarlane Laboratories) mounted on a glass coverslip. The perfusion chamber was 500 μm thick, and so attenuation of the treatment light by the TBO was only 30% at 50 μg/ml. For most treatments at a concentration of 12.5 μg/ml TBO, the attenuation of treatment light was only 9%. The inoculated perfusion chamber was irradiated under the desired conditions with a light beam whose diameter covered the perfusion chamber's transparent surface. Upon completion, the mixture was removed and serially diluted in PBS and each dilution was plated on the following media: for P. gingivalis, P. intermedia, and F. nucleatum, Trypticase Soy Agar (Fisher) supplemented with 5 g/l yeast extract, 5 μg/ml hemin, 1 μg/ml menadione, 50 ml/l defibrinated sheep's blood (Oxoid, Inc.; Nepean, Ontario, Canada); for B. forsythus, Trypticase Soy Agar supplemented with 4 g/L yeast extract, 4 g/L trypticase peptone (Fisher), N-acetymuramic acid (10 mg/ml stock filter sterilized into medium to 10 mg/l); and for A. actinomycetemcomitans, Tryptic Soy Agar. […]

[9] = xenon lamp 6.3 J/cm^2, 100 mW/cm^2, 12.5 μg/ml TBO

Cc1cc2nc3ccc(N(C)C)cc3[s+]c2cc1N [TBO, toluidine blue O]
P. gingivalis killing with serum ([1]; FBS 50% (v/v), xenon lamp 6.3 J/cm^2, 100 mW/cm^2, 12.5 μg/ml TBO): 3.05±1.02 logs
maximum blood resuspended P. gingivalis kill ([1]; defibrinated sheep's blood, xenon lamp 20 J/cm^2, 100 mW/cm^2, 12.5 μg/ml TBO): 2.85±0.33 logs
kill of blood suspended P. gingivalis compared to TBO absent controls at higher light doses ([1]; defibrinated sheep's blood, xenon lamp 100 mW/cm^2, 12.5 μg/ml TBO, light doses above 10 J/cm^2): ~3 log
storage stability of stock solution [2]: without a loss in potency
B. forsythus killing [3]: 3.92±0.68 logs
F. nucleatum kill [4]: 4.7±0.72 logs
P. gingivalis killing after serum washout [5, 9]: 4.71±1.07 logs
P. gingivalis kill after serum washout ([5]; xenon lamp 10 J/cm^2, 100 mW/cm^2, 12.5 μg/ml TBO): 5.48±0.68 logs
P. intermedia kill [6]: 5.33±0.62 logs
A. actinomycetemcomitans kill [7]: 5.51±1.34 logs
increase in bacterial killing, xenon lamp versus He—Ne laser ([8]; 2.2 J/cm^2, 50 μg/ml TBO): ~10 fold
reduction in viable bacteria ([8]; He—Ne laser, 2.2 J/cm^2, 50 μg/ml TBO): approximately 270 ×
killing of P. gingivalis ([8]; He—Ne laser): 2.43±0.39 logs
killing of P. gingivalis ([8]; red-filtered xenon lamp): 3.34±0.24 logs
P. gingivalis kill in the absence of serum [8, 9]: 6.02±0.76 logs
kill of P. gingivalis at each TBO concentration tested ([8]; xenon lamp 6.3 J/cm^2 and 100 mW/cm^2, each drug concentration incl. 3.125, 6.25 and 12.5 μg/ml): 5 logs
kill of P. gingivalis ([8]; xenon lamp 10 mW/cm^2, total light dose 2.2 J/cm^2, 50 μg/ml TBO): 2.12±0.36 logs
kill of P. gingivalis ([8]; xenon lamp 25 mW/cm^2, total light dose 2.2 J/cm^2, 50 μg/ml TBO): 3.34±0.41 logs
bacterial kill of P. gingivalis ([8]; xenon lamp 100 mW/cm^2, light dose 6.3 J/cm^2, 50 μg/ml TBO): 5 logs
kill of P. gingivalis ([8]; xenon lamp 100 mW/cm^2, total light dose 2.2 J/cm^2, 50 μg/ml TBO): 3.41±0.58 logs
